Measurements taken from ChEMBL document CHEMBL6092167, “Phosphorylation as an Effective Tool to Improve Stability and Reduce Toxicity of Antimicrobial Peptides” (J Med Chem, 2024).
Values after ≈ are worked out from the molar mass of the structure shown. Active and inactive are the calls of the source. No cut-off for these calls is given here. Positions of bridges follow the written chain, without caps; N, C: chain ends. Non-standard residues stand in square brackets, D forms with d. Residues, ends and D or L forms follow the SMILES beside them. *: point of attachment. X1 = CC[C@H](C)CCCCC(=O)*; dDab = NCC[C@@H](N)C(=O)O; Dab = NCC[C@H](N)C(=O)O

What was measured:
Bacillus subtilis = test: Antibacterial activity against Bacillus subtilis ATCC 23857 incubated for 18 to 24 hrs by broth microdilution method; type: functional; settings: time 18-24 hrs
Staphylococcus aureus [1] = test: Antibacterial activity against Staphylococcus aureus ATCC 25923 infected in BALB/c mouse systemic infection model assessed as improved alveoli dilation at 1.09 mg/kg, ip pre-infected for 2 hrs followed by compound addition and measured after 8 hrs postinfection; type: functional, organism-based; settings: time 6.0 hrs
Staphylococcus aureus [2] = test: Antibacterial activity against Staphylococcus aureus ATCC 25923 infected in BALB/c mouse systemic infection model assessed as reduction in bacterial load in spleen at 1.09 mg/kg, ip pre-infected for 2 hrs followed by compound addition and measured after 8 hrs postinfection; type: functional, organism-based; settings: time 6.0 hrs
Staphylococcus aureus [3] = test: Antibacterial activity against methicillin resistant Staphylococcus aureus ATCC 33591 incubated for 18 to 24 hrs by broth microdilution method; type: functional; settings: time 18-24 hrs
Acinetobacter baumannii = test: Antibacterial activity against Acinetobacter baumannii ATCC 19606 incubated for 18 to 24 hrs by broth microdilution method; type: functional; settings: time 18-24 hrs
Staphylococcus aureus [4] = test: Antibacterial activity against Staphylococcus aureus 794 incubated for 18 to 24 hrs by broth microdilution method; type: functional; settings: time 18-24 hrs
Klebsiella pneumoniae [5] = test: Antibacterial activity against Klebsiella pneumoniae ATCC 700603 incubated for 18 to 24 hrs by broth microdilution method; type: functional; settings: time 18-24 hrs
Staphylococcus aureus [6] = test: Antibacterial activity against Staphylococcus aureus ATCC 25923 incubated for 18 to 24 hrs by broth microdilution method; type: functional; settings: time 18-24 hrs
Staphylococcus aureus [7] = test: Antibacterial activity against methicillin resistant Staphylococcus aureus 48 incubated for 18 to 24 hrs by broth microdilution method; type: functional; settings: time 18-24 hrs
Staphylococcus aureus [8] = test: Antibacterial activity against Staphylococcus aureus ATCC 25923 infected in BALB/c mouse systemic infection model assessed as reduction in bacterial load in liver at 1.09 mg/kg, ip pre-infected for 2 hrs followed by compound addition and measured after 8 hrs postinfection; type: functional, organism-based; settings: time 6.0 hrs
Pseudomonas aeruginosa [9] = test: Antibacterial activity against Pseudomonas aeruginosa 119 incubated for 18 to 24 hrs by broth microdilution method; type: functional; settings: time 18-24 hrs
Staphylococcus aureus [10] = test: Antibacterial activity against Staphylococcus aureus ATCC 25923 infected in BALB/c mouse systemic infection model assessed as reduction in inflammatory response in lung tissue at 1.09 mg/kg, ip pre-infected for 2 hrs followed by compound addition and measured after 8 hrs postinfection; type: functional, organism-based; settings: time 6.0 hrs
Staphylococcus aureus [11] = test: Antibacterial activity against Staphylococcus aureus ATCC 25923 infected in BALB/c mouse systemic infection model assessed as reduction in tissue hemorrhage at 1.09 mg/kg, ip pre-infected for 2 hrs followed by compound addition and measured after 8 hrs postinfection; type: functional, organism-based; settings: time 6.0 hrs
Pseudomonas aeruginosa [12] = test: Antibacterial activity against Pseudomonas aeruginosa ATCC 27853 incubated for 18 to 24 hrs by broth microdilution method; type: functional; settings: time 18-24 hrs
Staphylococcus aureus [13] = test: Antibacterial activity against Staphylococcus aureus ATCC 25923 infected in BALB/c mouse systemic infection model assessed as reduction in bacterial load in kidney at 1.09 mg/kg, ip pre-infected for 2 hrs followed by compound addition and measured after 8 hrs postinfection; type: functional, organism-based; settings: time 6.0 hrs
Staphylococcus aureus [14] = test: Antibacterial activity against Staphylococcus aureus ATCC 25923 infected in BALB/c mouse systemic infection model assessed as reduction in bacterial load in lung at 1.09 mg/kg, ip pre-infected for 2 hrs followed by compound addition and measured after 8 hrs postinfection; type: functional, organism-based; settings: time 6.0 hrs
Staphylococcus aureus [15] = test: Bactericidal activity against Staphylococcus aureus ATCC 25923 at 2 times MIC incubated for 24 hrs by time kill assay; type: functional
Escherichia coli [16] = test: Antibacterial activity against Escherichia coli 780 incubated for 18 to 24 hrs by broth microdilution method; type: functional; settings: time 18-24 hrs
Klebsiella pneumoniae [17] = test: Synergistic antibacterial activity against Klebsiella pneumoniae ATCC 700603 assessed as fractional inhibitory concentration index at 1/4 to 4 times MIC incubated for 18 to 24 hrs in presence of ciprofloxacin by checkerboard assay; type: functional; settings: time 18-24 hrs
Klebsiella pneumoniae [18] = test: Drug resistance development in Klebsiella pneumoniae ATCC 700603 assessed as fold increase in MIC measured after 20 passage; type: functional
Staphylococcus aureus [19] = test: Antibacterial activity against Staphylococcus aureus ATCC 25923 assessed as fold increase in MIC in presence of Na+; type: functional
Klebsiella pneumoniae [20] = test: Additive antibacterial activity against Klebsiella pneumoniae ATCC 700603 assessed as fractional inhibitory concentration index at 1/4 to 4 times MIC incubated for 18 to 24 hrs in presence of kanamycin by checkerboard assay; type: functional; settings: time 18-24 hrs
Escherichia coli [21] = test: Antibacterial activity against Escherichia coli 850 incubated for 18 to 24 hrs by broth microdilution method; type: functional; settings: time 18-24 hrs
Escherichia coli [22] = test: Antibacterial activity against Escherichia coli ATCC 25922 incubated for 18 to 24 hrs by broth microdilution method; type: functional; settings: time 18-24 hrs
Staphylococcus aureus [23] = test: Antibacterial activity against Staphylococcus aureus ATCC 25923 preincubated for 6 hrs in presence of chymotrypsin followed by heat inactivation for 15 mins prior to bacterial addition and measured after 18 to 24 hrs by microplate reader assay; type: functional, organism-based; settings: time 18-24 hrs
Klebsiella pneumoniae [24] = test: Antibacterial activity against Klebsiella pneumoniae ATCC 700603 infected in BALB/c mouse lung infection model assessed as reduction in hepatic hemorrhage at 2.46 mg/kg, ip administered twice daily for 3 days and measured after 7 days; type: functional, organism-based; settings: time 10.0 day
Klebsiella pneumoniae [25] = test: Antibacterial activity against Klebsiella pneumoniae ATCC 700603 infected in BALB/c mouse lung infection model assessed as reduction in alveolar contraction at 2.46 mg/kg, ip administered twice daily for 3 days and measured after 7 days; type: functional, organism-based; settings: time 10.0 day
Klebsiella pneumoniae [26] = test: Antibacterial activity against Klebsiella pneumoniae 700603 preincubated for 6 hrs in presence of trypsin followed by heat inactivation for 15 mins prior to bacterial addition and measured after 18 to 24 hrs by microplate reader assay; type: functional, organism-based; settings: time 18-24 hrs
Staphylococcus aureus [27] = test: Antibacterial activity against Staphylococcus aureus ATCC 25923 preincubated for 6 hrs in presence of trypsin followed by heat inactivation for 15 mins prior to bacterial addition and measured after 18 to 24 hrs by microplate reader assay; type: functional, organism-based; settings: time 18-24 hrs
Klebsiella pneumoniae [28] = test: Antibacterial activity against Klebsiella pneumoniae ATCC 700603 infected in BALB/c mouse lung infection model assessed as reduction in pulmonary tissue bleeding at 2.46 mg/kg, ip administered twice daily for 3 days and measured after 7 days; type: functional, organism-based; settings: time 10.0 day
Klebsiella pneumoniae [29] = test: Antibacterial activity against Klebsiella pneumoniae 700603 preincubated for 6 hrs in presence of chymotrypsin followed by heat inactivation for 15 mins prior to bacterial addition and measured after 18 to 24 hrs by microplate reader assay; type: functional, organism-based; settings: time 18-24 hrs
Escherichia coli [30] = test: Antibiofilm activity against Escherichia coli ATCC 25922 assessed as eradication of preformed biofilms at 4 times MIC incubated for 24 hrs by crystal violet staining based assay; type: functional, organism-based
Klebsiella pneumoniae [31] = test: Antibiofilm activity against Klebsiella pneumoniae ATCC 700603 assessed as eradication of preformed biofilms at 4 times MIC incubated for 24 hrs by crystal violet staining based assay; type: functional, organism-based
Pseudomonas aeruginosa [32] = test: Antibiofilm activity against Pseudomonas aeruginosa ATCC 27853 assessed as eradication of preformed biofilms at 4 times MIC incubated for 24 hrs by crystal violet staining based assay; type: functional, organism-based
Klebsiella pneumoniae [33] = test: Drug resistance development in Klebsiella pneumoniae ATCC 700603 assessed as fold increase in MIC measured after 7 passage; type: functional
Staphylococcus aureus [34] = test: Inhibition of biofilm formation in Staphylococcus aureus ATCC 25923 at 2 times MIC incubated for 24 hrs by crystal violet staining based assay; type: functional, organism-based
Staphylococcus aureus [35] = test: Antibiofilm activity against Staphylococcus aureus ATCC 25923 assessed as eradication of preformed biofilms at 4 times MIC incubated for 24 hrs by crystal violet staining based assay; type: functional, organism-based

Row | SMILES | MIC (Bacillus subtilis) [µM] | MIC (Staphylococcus aureus [3]) [µM] | MIC (Acinetobacter baumannii) [µM] | MIC (Staphylococcus aureus [4]) [µM] | MIC (Klebsiella pneumoniae [5]) [µM] | MIC (Staphylococcus aureus [6]) [µM] | MIC (Staphylococcus aureus [7]) [µM] | MIC (Pseudomonas aeruginosa [9]) [µM] | MIC (Pseudomonas aeruginosa [12]) [µM] | Activity (Staphylococcus aureus [15]) [%] | MIC (Escherichia coli [16]) [µM] | MIC (Escherichia coli [21]) [µM] | MIC (Escherichia coli [22]) [µM] | further results
1 | CNC(C)[C@@H]1CC[C@@H](N)[C@@H](O[C@H]2[C@H](O)[C@@H](O[C@H]3OC[C@](C)(O)[C@H](NC)[C@H]3O)[C@H](N)C[C@@H]2N)O1.CN[C@@H]1[C@@H](O)[C@@H](O[C@@H]2[C@@H](O)[C@H](O[C@H]3O[C@H](C(C)N)CC[C@H]3N)[C@@H](N)C[C@H]2N)OC[C@]1(C)O.CN[C@@H]1[C@@H](O)[C@@H](O[C@@H]2[C@@H](O)[C@H](O[C@H]3O[C@H](CN)CC[C@H]3N)[C@@H](N)C[C@H]2N)OC[C@]1(C)O (stereo partly specified) | < 1 | 32 | 8 | 64 | 8 | < 1 | 64 | > 128 | < 1 | – | – | – | – | Activity (Staphylococcus aureus [1]): inactive; Activity (Staphylococcus aureus [2]): Active; Activity (Staphylococcus aureus [8]): Active; Activity (Staphylococcus aureus [10]): Active; Activity (Staphylococcus aureus [11]): Active; Activity (Staphylococcus aureus [13]): Active; Activity (Staphylococcus aureus [14]): Active
2 | CC(C)CCCCC(=O)N[C@@H](CCN)C(=O)N[C@H](C(=O)N[C@@H](CCN)C(=O)N[C@H]1CCNC(=O)[C@H]([C@@H](C)O)NC(=O)[C@H](CCN)NC(=O)[C@H](CCN)NC(=O)[C@H](CC(C)C)NC(=O)[C@@H](Cc2ccccc2)NC(=O)[C@H](CCN)NC1=O)[C@@H](C)O.CC[C@H](C)CCCCC(=O)N[C@@H](CCN)C(=O)N[C@H](C(=O)N[C@@H](CCN)C(=O)N[C@H]1CCNC(=O)[C@H]([C@@H](C)O)NC(=O)[C@H](CCN)NC(=O)[C@H](CCN)NC(=O)[C@H](CC(C)C)NC(=O)[C@@H](Cc2ccccc2)NC(=O)[C@H](CCN)NC1=O)[C@@H](C)O (X1-[Dab]T[Dab][Dab][Dab][dF]L[Dab][Dab]T; lactam 4-C) | 4 | 16 | 2 | 8 | 4 | 16 | 16 | 2 | 2 | 100 | 2 | 2 | 4 | fractional inhibitory concentration index (FICI) (Klebsiella pneumoniae [17]): 0.313; fold change (FC) (Klebsiella pneumoniae [18]): 64; fold change (FC) (Staphylococcus aureus [19]): 4; fractional inhibitory concentration index (FICI) (Klebsiella pneumoniae [20]): 0.313
3 | CC(C)CCCCC(=O)N[C@@H](CCN)C(=O)N[C@H](C(=O)N[C@@H](CCN)C(=O)N[C@H]1CCNC(=O)[C@H]([C@@H](C)O)NC(=O)[C@H](CCN)NC(=O)[C@H](CCN)NC(=O)[C@H](CC(C)C)NC(=O)[C@@H](Cc2ccccc2)NC(=O)[C@@H](CCN)NC1=O)[C@@H](C)O.CC[C@H](C)CCCCC(=O)N[C@@H](CCN)C(=O)N[C@H](C(=O)N[C@@H](CCN)C(=O)N[C@H]1CCNC(=O)[C@H]([C@@H](C)O)NC(=O)[C@H](CCN)NC(=O)[C@H](CCN)NC(=O)[C@H](CC(C)C)NC(=O)[C@@H](Cc2ccccc2)NC(=O)[C@@H](CCN)NC1=O)[C@@H](C)O (X1-[Dab]T[Dab][Dab][dDab][dF]L[Dab][Dab]T; lactam 4-C) | – | – | – | – | – | – | – | – | – | – | – | – | – | Activity (Staphylococcus aureus [23]): Active; High Enzymatic Stability; Activity (Klebsiella pneumoniae [24]): inactive; Activity (Klebsiella pneumoniae [25]): inactive; Activity (Klebsiella pneumoniae [26]): Active; High Enzymatic Stability; Activity (Staphylococcus aureus [27]): Active; High Enzymatic Stability; Activity (Klebsiella pneumoniae [28]): inactive; Activity (Klebsiella pneumoniae [29]): Active; High Enzymatic Stability; Activity (Escherichia coli [30]): Active; Activity (Klebsiella pneumoniae [31]): Active; Activity (Pseudomonas aeruginosa [32]): Active
4 | NC[C@H]1O[C@H](O[C@H]2[C@H](O)[C@@H](O[C@H]3O[C@H](CO)[C@@H](O)[C@H](N)[C@H]3O)[C@H](N)C[C@@H]2N)[C@H](O)[C@@H](O)[C@@H]1O [KANAMYCIN] | < 1 | > 128 | 8 (≈ 3.88 µg/mL) | 64 (≈ 31 µg/mL) | 32 (≈ 15.5 µg/mL) | < 1 | > 128 | 64 (≈ 31 µg/mL) | > 128 | – | 32 (≈ 15.5 µg/mL) | > 128 | 8 (≈ 3.88 µg/mL) | fold change (FC) (Klebsiella pneumoniae [33]): 128
5 | CN[C@H](CC(C)C)C(=O)N[C@H]1C(=O)N[C@@H](CC(N)=O)C(=O)N[C@H]2C(=O)N[C@H]3C(=O)N[C@H](C(=O)N[C@H](C(=O)O)c4cc(O)cc(O)c4-c4cc3ccc4O)[C@H](O)c3ccc(c(Cl)c3)Oc3cc2cc(c3O[C@@H]2O[C@H](CO)[C@@H](O)[C@H](O)[C@H]2O[C@H]2C[C@](C)(N)[C@H](O)[C@H](C)O2)Oc2ccc(cc2Cl)[C@H]1O [VANCOMYCIN] | < 1 | < 1 | 64 (≈ 92.8 µg/mL) | 128 (≈ 186 µg/mL) | > 128 | < 1 | < 1 | > 128 | > 128 | 100 | 128 (≈ 186 µg/mL) | 128 (≈ 186 µg/mL) | 128 (≈ 186 µg/mL) | inhibition (Staphylococcus aureus [34]): Active; Activity (Staphylococcus aureus [35]): Active; Showed Poor Efficacy
